Reference: patent publication US20130210901A1, “METHOD OF TREATING NEURODEGENERATIVE DISEASES” (Yissum Research Development Company of the Hebrew …, priority 2010, published 2013)
Read-outs that look alike come from different tables or passages of the source.

Assays:
hnRNP A/B = hnRNP A/B expression in primary neuronal cultures incubated with cholinergic agonist; format: cell-based, mouse; settings: 10 μM, 48 hours
Description: Primary mixed cortical cultures: Primary mouse cultures of neurons and glia were produced from E16 embryos. Pregnant mice were anesthetized with isoflurane and sacrificed by cervical dislocation. The uterus was removed and placed on ice. After 5 minutes the heads were dissected under binocular and cortices were removed, placed in cold DMEM, and triturated with a scalpel and up and down pippeting. The medium was replaced with neurobasal medium supplemented with 1:50 B27, 2 mM L-Glutamine (Invitrogen, Grand Island, N.Y.), 50 U penicillin and 50 μg/ml streptomycin (Biological Industries, Beit-haemek, Israel), cells were counted and plated in 12 or 24-well plated pre-treated with 10 μg/ml poly-lysine (Sigma, St. Louis). For confocal microscopy cells were plated on glass cover slips similarly treated.
Immunohistochemistry and immunofluorescence: Paraffin slides were rehydrated by washing in xylene and serial dilutions of ethanol in water. Heat-induced antigen retrieval involved boiling slides in 10 mM pH 6 citrate buffer for 10 minutes. Hydrogen peroxide methanol quench was performed for slides later developed with 3,3′-Diaminobenzidine tetrahydrochloride (DAB). […]

miR-211 = assay: Antisense blockage of miR-211 in cultured N9 cells, hnRNP A/B levels; format: cell-based
miRNA-132 = assay: miRNA expression in temporal cortex 48 hours after muscarinic agonist injection (RT-PCR); format: in vivo, mouse; settings: 48 hours after injections
Description: (§1) β-actin and GAPDH were used as reference transcripts. Annealing temperature was 60° C. for all primers. Serial dilution of samples served to evaluate primers efficiency and the appropriate cDNA concentration that yields linear changes. -RT controls verified lack of genomic DNA. miRNA quantification using The TaqMan miRNA Assays (Applied Biosystems) was conducted in two-step RT-PCR kit according to the manufacturer's instructions.

miRNA-211 = assay: as above; format: in vivo, mouse; settings: 48 hours after injections
Description: as §1

Molecule: C[N+](C)(C)CCOC(N)=O [carbachol]
- expression of hnRNP A/B (hnRNP A/B): increased

Molecule: Antisense oligonucleotides to miR-211: locked nucleic acid oligonucleotide complementary to miR-211; miR211 antagonist e.g. SEQ ID NO: 87 (antisense AGGCGAAGGATGACAAAGGGAA; locked nucleic acid oligonucleotide, pattern not given here)
- hnRNP A/B levels (miR-211): increased
- hnRNP A/B levels (miR-211; listed as locked nucleic acid complementary oligonucleotide): increases

Molecule: CC[C@@H]1C(=O)OC[C@@H]1Cc1cncn1C [muscarinic agonist, pilocarpine]
- levels of miRNA-132 (miRNA-132): increased
- levels of miRNA-211 (miRNA-211): reduced
